Test results published in patent publication US20070207996A1, “Novel Compositions And Methods Of Treatment” (priority 2004, published 2007).

What was measured:
[1] = system: P388 lymphocytic leukemia; test: Drug combination efficacy study in advanced systemic P388 lymphocytic leukemia model; assay type: in vivo, mice
Method: (§1) Female B6D2F1 mice (Charles River Laboratories, Raleigh, N.C.) were used in these studies. All procedures were performed in accordance with protocols approved by the SB Institutional Animal Care and Use Committee, and met or exceeded the standards of the American Association for the Accreditation of Laboratory Animal Care (AAALAC), the United States Department of Health and Human Services and all local and federal animal welfare laws.
(§2) MAP and PCR tested P388 lymphocytic leukemia cell lines obtained originally from the National Cancer Institute Repository at Frederick Cancer Research Center, Frederick, Md., were used in these studies. P388 lymphocytic leukemia were maintained by serial i.p. transplantation in syngeneic B6D2F1 mice. […] Protocols for screening chemical agents and natural products against animal tumors and other biological systems. Cancer Chemother. […] All tumor tissues are presently in cryopreservation within the department of Molecular and Cellular Oncology.
(§3) For efficacy studies, P388 lymphocytic leukemia were harvested aseptically from the peritoneal cavity of donor mice, pooled, diluted with Earle's Balanced Salt Solution and trypan blue, and counted using a hemocytometer. An inoculum of 0.2 ml (5×10^6/ml) was implanted i.v. in the lateral tail vein of female BDF1 mice using a 25 gauge needle. The tumor inoculum was tested for bacterial contamination as determined by a 24-hr incubation in thioglycollate broth.
(§4) Each experiment included two groups of untreated tumor-bearing controls, and a titration of tumor cells in untreated animals (ranging from 10^1 to 10^5 so that drug-induced cell kill (NCK) could be calculated. Drug treatment was initiated 48 hrs after tumor implantation. Specific endpoints calculated from this model are % increase in median lifespan (% ILS) relative to the untreated control animals and log net change in tumor cell burden following therapy (NCK).

[2] = as above; assay type: in vivo, mice; conditions: female, B6D2F1, mouse, in vivo
Method: as §1, §2, §3, §4

[3] = First Time in Human Study of Compound A, monotherapy once every 21 days; assay type: in vivo; conditions: once every 21 day schedule, prior study in humans
in vivo = conditions: mouse
[4] = cisplatin alone 4 mg/kg, ip q4dx3, first cisplatin study
[5] = cisplatin alone 4 mg/kg, repeat cisplatin study
[6] = ip, single agent, ip Days 2, 6, 10, gemcitabine study, read-out: MTD
[7] = gemcitabine alone 200 mg/kg, ip Days 2, 6, 10
[8] = doxorubicin alone 12 mg/kg, ip Days 2, 6, 10
[9] = ip, single agent, ip q4dx3 Days 2, 6, 10, irinotecan study, read-out: MTD
[10] = Compound A 2.6 mg/kg alone, ip Days 2, 6, 10, 5FU study
[11] = Compound A 4.3 mg/kg alone, ip Days 2, 6, 10, 5FU study
[12] = Compound A alone 4.3 mg/kg (MTD), ip q4dx3, first cisplatin study
[13] = Compound A alone 4.3 mg/kg (MTD), doxorubicin study
[14] = Compound A alone 6 mg/kg (MTD), irinotecan study
[15] = Compound A alone 7.2 mg/kg (MTD), repeat cisplatin study
[16] = Compound A alone 10 mg/kg, gemcitabine study
[17] = 5FU 26 mg/kg alone, ip Days 2, 6, 10
[18] = 5FU 43 mg/kg alone, ip Days 2, 6, 10
[19] = 5FU 72 mg/kg alone, ip Days 2, 6, 10
[20] = 5FU 120 mg/kg alone, ip Days 2, 6, 10
[21] = irinotecan alone 54 mg/kg, ip q4dx3
[22] = irinotecan alone 150 mg/kg (MTD), ip q4dx3

With `N.N.[Cl][Pt][Cl]` [Cisplatin, cisplatin, reference compound] the “% ILS (increase in life span)” value [1, 4] was 200%, the “log cell kill (net cell kill)” value [1, 4] was 3.7 log and the “% ILS (increase in life span)” value [1, 5] was 133%. The “log cell kill (net cell kill)” value [1, 5] was 1.7 log.

In the case of `Nc1ccn([C@@H]2O[C@H](CO)[C@@H](O)C2(F)F)c(=O)n1` [Gemcitabine, gemcitabine, reference compound], the MTD [2, 6] is reported as no less than 200 mg/kg, the “% ILS (increase in life span)” value [1, 7] is reported as 289% and the “log cell kill (net cell kill)” value [1, 7] is reported as greater than 7.3 log. The “efficacy at lower doses” value ([1]; gemcitabine alone at 120 mg/kg or less) was “less effective”.

With `COc1cccc2c1C(=O)c1c(O)c3c(c(O)c1C2=O)C[C@@](O)(C(=O)CO)C[C@@H]3O[C@H]1C[C@H](N)[C@H](O)[C@H](C)O1` [Doxorubicin, doxorubicin, reference compound] the “% ILS (increase in life span)” value [1, 8] was 89% and the “log cell kill (net cell kill)” value [1, 8] was “no log cell kill”.

Work on `CS(=O)(=O)O.Cc1ccc(C(=O)N(CCCN)[C@@H](c2nc3cc(Cl)ccc3c(=O)n2Cc2ccccc2)C(C)C)cc1` [Compound A, N-(3-aminopropyl)-N-[(1R)-1-[7-chloro-3,4-dihydro-4-oxo-3-(phenylmethyl)-2-quinazolinyl]-2-methylpropyl]-4-methylbenzamide, mesylate salt] yielded an MTD ([2]; intraperitoneal, increased from 7.2 alone, repeat cisplatin study, read-out: MTD of Compound A in combination with cisplatin) of 12 mg/kg, an MTD ([2]; ip, single agent, ip Days 2, 6, 10, doxorubicin study, read-out: MTD) of 4.3 mg/kg and an MTD [2, 6] of no less than 10 mg/kg. It also gave an MTD ([2]; ip, single agent, ip q4dx3, 5FU study, read-out: MTD) of 7.2 mg/kg, an MTD ([2]; ip, single agent, ip q4dx3, first cisplatin study, read-out: MTD) of 4.3 mg/kg and an MTD ([2]; ip, single agent, ip q4dx3, repeat cisplatin study, read-out: MTD) of 7.2 mg/kg. The MTD [2, 9] was 6 mg/kg, the “% ILS” value [1, 10] was 78% and the “Net Cell Kill” value [1, 10] was “[0] log”. For the same compound, the “% ILS” value [1, 11] was 122%, the “Net Cell Kill” value [1, 11] was “[1.1] log” and the “% ILS” value ([1]; Compound A 7.2 mg/kg (MTD) alone, ip Days 2, 6, 10, 5FU study) was 178%. For the same compound, the “toxicity at dose level” value ([1]; Compound A 12 mg/kg alone, ip Days 2, 6, 10, 5FU study) was “Toxic”, the “toxicity at dose level” value ([1]; Compound A 20 mg/kg alone, ip Days 2, 6, 10, 5FU study) was “Toxic” and the “% ILS (increase in life span)” value [1, 12] was 144%. The “log cell kill (net cell kill)” value [1, 12] was 1.8 log, the “% ILS (increase in life span)” value [1, 13] was 156% and the “log cell kill (net cell kill)” value [1, 13] was 1.3 log. For the same compound, the “% ILS (increase in life span)” value [1, 14] was 167%, the “log cell kill (net cell kill)” value [1, 14] was 3.0 log and the “% ILS (increase in life span)” value [1, 15] was 144%. For the same compound, the “log cell kill (net cell kill)” value [1, 15] was 2.2 log, the “% ILS (increase in life span)” value [1, 16] was 211% and the “log cell kill (net cell kill)” value [1, 16] was 6.2 log. The “MTD of Compound A in combination versus alone” value ([1]; combined with 0.86 or 1.44 mg/kg cisplatin, first cisplatin study) was “higher MTD”, the MTD [3] was 18 mg/m^2 and the “activity against MX-1” value (MX-1 breast carcinoma; Compound A alone at MTD of 10 mg/kg, q4dx3) was “refractory”. For the same compound, the MTD (in vivo) was 10 mg/kg.

With `O=c1[nH]cc(F)c(=O)[nH]1` [Compound 5FU, 5-fluorouracil, reference compound] the “% ILS” value [1, 17] was 33%, the “Net Cell Kill” value [1, 17] was “[0] log” and the “% ILS” value [1, 18] was 55%. The “Net Cell Kill” value [1, 18] was “[0] log”, the “Net Cell Kill” value ([1]; 5FU 43 mg/kg alone, ip Days 2, 6, 10, listed as 5 FU) was “no log cell kill” and the “% ILS” value [1, 19] was 44%. The “Net Cell Kill” value [1, 19] was “[0] log”, the “% ILS” value [1, 20] was 22% and the “Net Cell Kill” value [1, 20] was “[0] log”. The “toxicity at dose level” value ([1]; 5FU 200 mg/kg alone, ip Days 2, 6, 10) was “Toxic”.

For `CCCCCOC(=O)Nc1nc(=O)n([C@@H]2O[C@H](C)[C@@H](O)[C@H]2O)cc1F` [CAP, Capecitabine, reference compound], the MX-1 tumor growth (MX-1 breast carcinoma; CAP alone 500 and 250 mg/kg, daily for two 5 day cycles with 2 day rest) was “slight delay in MX-1 tumor growth” and the MTD (in vivo) was 500 mg/kg.

For `CCc1c2c(nc3ccc(OC(=O)N4CCC(N5CCCCC5)CC4)cc13)-c1cc3c(c(=O)n1C2)COC(=O)[C@]3(O)CC` [Irinotecan, irinotecan, reference compound], the MTD [2, 9] was 150 mg/kg, the “% ILS (increase in life span)” value [1, 21] was 211% and the “log cell kill (net cell kill)” value [1, 21] was 4.8 log. The “% ILS (increase in life span)” value [1, 22] was greater than 450% and the “log cell kill (net cell kill)” value [1, 22] was greater than 6.9 log.
